Measured values reported in patent publication US9163021B2, “Pyrrolo[3,2-c]pyridine tropomyosin-related kinase inhibitors” (Pfizer Limited, priority 2012, dated 2015).

target: TRKA (Homo sapiens (Human), UniProt P04629); assay: Isolated TRK enzyme assay (HTRF KinEASE-TK), PV3144 TrkA enzyme assay; format: biochemical; details: arithmetic mean where more than one reading
Procedure: Isolated TRK Enzyme assays use the HTRF KinEASE-TK kit (Cisbio Cat#62TK0PEJ) with recombinant His-tagged cytoplasmic domains of each TRK receptor sourced from Invitrogen (see table below). This activity-assay measures the phosphorylation of tyrosine residues within a substrate from the HTRF kit which has been validated by Cisbio for a variety of tyrosine kinases including the TRK receptors.
0.5 mM stock solutions of test compounds are prepared and serially diluted in 100% DMSO. A standard curve using the compound of Example 135 disclosed in WO2005/116035 of 150 uM is also prepared on each test plate. High percentage effect (HPE) is defined by 150 uM (using the compound of Example 135 as disclosed in WO2005/116035) and 0% effect (ZPE) is defined by 100% DMSO. Greiner low volume black plates containing 0.2 ul of serially diluted compound, standard and HPE/ZPE are created using the Bravo nanoliter dispenser.
1× enzyme buffer is prepared from 5× Enzymatic Buffer from the Cisbio KinEASE TK kit using MilliQ water. The buffer is then supplemented with 10 mM MgCI and 2 mM DTT (both from Sigma). In the case of TRKB, the buffer is also supplemented with 125 nM Supplement Enzymatic Buffer (SEB) from the Cisbio kit.
2× FAC of enzyme and 2× FAC ATP diluted in 1× complete enzyme buffer is incubated at room temperature for 20 minutes to preactivate the enzyme. Following this preactivation step, 5 ul/well of enzyme+ATP mix is added using a Multidrop Micro to the assay plate, spotted with 0.2 ul 100% DMSO compound. This is left for 20 mins at room temperature before adding 5 ul of 2 uM TK-substrate-Biotin (from the Cisbio kit) diluted in 1× enzyme buffer (1 uM FAC) using the Multidrop Micro. The reaction is incubated at room temperature for the optimized assay reaction time (see table). The reaction is stopped by adding 10 ul/well HTRF Detection Buffer containing 0.25 uM Streptavidin-XL665 (0.125 uM FAC) and 1:200 TK Antibody-Cryptate using a Multidrop.
After the Detection Reagent addition, plates are covered and incubated at room temperature for 60 minutes. HTRF signal is read using an Envision reader, measured as a ratio of emissions at two different wavelengths, 620 nm and 665 nm. […] Test compound data are expressed as percentage inhibition defined by HPE and ZPE values for each plate. Percentage inhibition in the presence of test compound is plotted against compound concentration on a log scale to determine an IC50 from the resultant sigmoid curve.
Where more than one reading was taken, the arithmetic mean is presented.

Sequence of TRKA (P04629 441-796): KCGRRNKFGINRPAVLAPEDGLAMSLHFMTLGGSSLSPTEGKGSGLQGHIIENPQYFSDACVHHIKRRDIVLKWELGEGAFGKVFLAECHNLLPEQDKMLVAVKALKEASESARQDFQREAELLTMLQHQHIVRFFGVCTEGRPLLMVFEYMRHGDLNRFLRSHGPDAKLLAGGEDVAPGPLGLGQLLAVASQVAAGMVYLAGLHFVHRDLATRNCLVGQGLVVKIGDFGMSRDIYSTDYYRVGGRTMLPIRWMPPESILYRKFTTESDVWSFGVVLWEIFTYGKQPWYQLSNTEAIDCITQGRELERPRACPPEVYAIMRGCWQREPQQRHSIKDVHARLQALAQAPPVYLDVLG

Compound | IC50 [nM]
Cc1cc(C)n(CC(=O)Nc2cncc(C(=O)c3cn(C(C)C)c4ccncc34)c2)n1 [Example 131, 2-(3,5-dimethyl-1H-pyrazol-1-yl)-N-(5-{[1-(propan-2-yl)-1H-pyrrolo[3,2-c]pyridin-3-yl]carbonyl}pyridin-3-yl)acetamide] | 92.8
CC(C)n1cc(C(=O)c2ccnc(NC(=O)Cc3ccc(Cl)c(Cl)c3)c2)c2cnccc21 [Example 165, 2-(3,4-dichlorophenyl)-N-(4-{[1-(propan-2-yl)-1H-pyrrolo[3,2-c]pyridin-3-yl]carbonyl}pyridin-2-yl)acetamide] | 5.68
CC(C)n1cc(C(=O)c2cncc(NC(=O)Cn3ccc(C4CC4)n3)c2)c2cnccc21 [Example 26, 2-(3-cyclopropyl-1H-pyrazol-1-yl)-N-(5-{[1-(propan-2-yl)-1H-pyrrolo[3,2-c]pyridin-3-yl]carbonyl}pyridin-3-yl)acetamide] | 108
CC(C)n1cc(C(=O)c2cc(NC(=O)Cn3ccc(C4CC4)n3)ccn2)c2cnccc21 [Example 29, 2-(3-cyclopropyl-1H-pyrazol-1-yl)-N-(2-{[1-(propan-2-yl)-1H-pyrrolo[3,2-c]pyridin-3-yl]carbonyl}pyridin-4-yl)acetamide] | 106
CC(C)n1cc(C(=O)c2cncc(NC(=O)Cn3cc(Cl)cn3)c2)c2cnccc21 [Example 127, 2-(4-chloro-1H-pyrazol-1-yl)-N-(5-{[1-(propan-2-yl)-1H-pyrrolo[3,2-c]pyridin-3-yl]carbonyl}pyridin-3-yl)acetamide] | 41.8
CC(C)n1cc(C(=O)c2ccnc(NC(=O)Cc3cccc(CC(C)(C)O)c3)c2)c2cnccc21 [Example 97, 2-[3-(2-hydroxy-2-methylpropyl)phenyl]-N-(4-{[1-(propan-2-yl)-1H-pyrrolo[3,2-c]pyridin-3-yl]carbonyl}pyridin-2-yl)acetamide] | 31.1
CC(C)(CO)n1cc(C(=O)c2cncc(NC(=O)Cc3ccc(F)cn3)c2)c2cncc(F)c21 [Example 93, N-(5-{[7-fluoro-1-(1-hydroxy-2-methylpropan-2-yl)-1H-pyrrolo[3,2-c]pyridin-3-yl]carbonyl}pyridin-3-yl)-2-(5-fluoropyridin-2-yl)acetamide] | 38.7
CC(C)n1cc(C(=O)c2cncc(NC(=O)Cc3cnccn3)c2)c2cnccc21 [Example 133, N-(5-{[1-(propan-2-yl)-1H-pyrrolo[3,2-c]pyridin-3-yl]carbonyl}pyridin-3-yl)-2-(pyrazin-2-yl)acetamide] | 4340
CC(CO)n1cc(C(=O)c2cncc(NC(=O)Cc3ccc(C(F)(F)F)cc3)c2)c2cncc(F)c21 (single isomer, unassigned) [Example 222, N-(5-{[7-fluoro-1-(1-hydroxypropan-2-yl)-1H-pyrrolo[3,2-c]pyridin-3-yl]carbonyl}pyridin-3-yl)-2-[4-(trifluoromethyl)phenyl]acetamide] | 16.4
CC(C)c1ccnn1CC(=O)Nc1cc(C(=O)c2cn(C(C)C)c3ccncc23)ccn1 [Example 111, 2-[5-(propan-2-yl)-1H-pyrazol-1-yl]-N-(4-{[1-(propan-2-yl)-1H-pyrrolo[3,2-c]pyridin-3-yl]carbonyl}pyridin-2-yl)acetamide] | 96.8
Cc1cc(C(F)(F)F)nn1CC(=O)Nc1cncc(C(=O)c2cn(C(C)CO)c3ccncc23)c1 (single isomer, unassigned) [Example 63, N-(5-{[1-(1-hydroxypropan-2-yl)-1H-pyrrolo[3,2-c]pyridin-3-yl]carbonyl}pyridin-3-yl)-2-[5-methyl-3-(trifluoromethyl)-1H-pyrazol-1-yl]acetamide] | 28.8
CC(C)c1cn(CC(=O)Nc2cc(C(=O)c3cn(C(C)C)c4ccncc34)ccn2)nn1 [Example 98, N-(4-{[1-(propan-2-yl)-1H-pyrrolo[3,2-c]pyridin-3-yl]carbonyl}pyridin-2-yl)-2[4-(propan-2-yl)-1H-1,2,3-triazol-1-yl]acetamide] | 40.6
N-(4-{[1-(propan-2-yl)-1H-pyrrolo[3,2-c]pyridin-3-yl]carbonyl}pyridin-2-yl)-2-[4-(trifluoromethoxy)phenyl]acetamide [Example 168] | 14.7
CC(C)n1cc(C(=O)c2ccnc(NC(=O)Cc3ccc(Cl)cn3)c2)c2cnccc21 [Example 82, 2-(5-chloropyridin-2-yl)-N-(4-{[1-(propan-2-yl)-1H-pyrrolo[3,2-c]pyridin-3-yl]carbonyl}pyridin-2-yl)acetamide] | 6.16
CC(C)n1cc(C(=O)c2cncc(NC(=O)Cc3ccc(F)cn3)c2)c2cncc(F)c21 [Example 88, N-(5-{[7-fluoro-1-(propan-2-yl)-1H-pyrrolo[3,2-c]pyridin-3-yl]carbonyl}pyridin-3-yl)-2-(5-fluoropyridin-2-yl)acetamide] | 68.4
Cc1cc(C(F)(F)F)nn1CC(=O)Nc1cncc(C(=O)c2cn(C(C)(C)CO)c3c(F)cncc23)c1 [Example 1, N-{5-[7-Fluoro-1-(2-hydroxy-1,1-dimethyl-ethyl)-1H-pyrrolo[3,2-c]pyridine-3-carbonyl]-pyridin-3-yl}-2-(5-methyl-3-trifluoromethyl-pyrazol-1-yl)-acetamide] | 6.32

Other lines, results leading:

IC50 [nM] | Compound
11.3 | CC(CO)n1cc(C(=O)c2cncc(NC(=O)Cc3cccc(C(F)(F)F)c3)c2)c2cncc(F)c21 (single isomer, unassigned) [Example 226, N-(5-{[7-fluoro-1-(1-hydroxypropan-2-yl)-1H-pyrrolo[3,2-c]pyridin-3-yl]carbonyl}pyridin-3-yl)-2-[3-(trifluoromethyl)phenyl]acetamide]
1860 | CC(C)n1cc(C(=O)c2ccnc(NC(=O)Cc3cncs3)c2)c2cnccc21 [Example 185, N-(4-{[1-(propan-2-yl)-1H-pyrrolo[3,2-c]pyridin-3-yl]carbonyl}pyridin-2-yl)-2(1,3-thiazol-5-yl)acetamide]
26.1 | CC(C)n1cc(C(=O)c2ccnc(NC(=O)Cc3ccccc3OC(F)(F)F)c2)c2cnccc21 [Example 182, N-(4-{[1-(propan-2-yl)-1H-pyrrolo[3,2-c]pyridin-3-yl]carbonyl}pyridin-2-yl)-2-[2-(trifluoromethoxy)phenyl]acetamide]
477 | CC(C)n1cc(C(=O)c2ccnc(NC(=O)Cn3cc(C(C)(C)O)nn3)c2)c2cnccc21 [Example 188]
22 | CC(C)n1ncc(CC(=O)Nc2cc(C(=O)c3cn(C(C)C)c4ccncc34)ccn2)c1C(F)(F)F [Example 178, N-(4-{[1-(propan-2-yl)-1H-pyrrolo[3,2-c]pyridin-3-yl]carbonyl}pyridin-2-yl)-2-[1-(propan-2-yl)-5-(trifluoromethyl)-1H-pyrazol-4-yl]acetamide]
1080 | CC(C)n1cc(C(=O)c2ccnc(NC(=O)Cc3ccon3)c2)c2cnccc21 [Example 180, 2-(1,2-oxazol-3-yl)-N-(4-{[1-(propan-2-yl)-1H-pyrrolo[3,2-c]pyridin-3-yl]carbonyl}pyridin-2-yl)acetamide]
27.8 | CC(CO)n1cc(C(=O)c2cncc(NC(=O)Cc3ccc(Cl)cc3)c2)c2cncc(F)c21 (single isomer, unassigned) [Example 223, 2-(4-chlorophenyl)-N-(5-{[7-fluoro-1-(1-hydroxypropan-2-yl)-1H-pyrrolo[3,2-c]pyridin-3-yl]carbonyl}pyridin-3-yl)acetamide]
